Patent US6369101B1, “Therapeutic method to treat herpes virus infection” (Regents of the University of Minnesota, priority 1999, dated 2002)
Values after ≈ are worked out from the molar mass of the structure shown.

Experiments:
MEF cells = test: CC50 in MEF cells (Table 3); format: cell-based; settings: Mouse Cytomegalovirus section of Table 3
Human Cytomegalovirus = test: CPE inhibition in stationary cells (visual), HCMV in HFF cells; format: cell-based; settings: test compounds in DMSO
Varicella-Zoster Virus = test: CPE inhibition in stationary cells (visual), VZV in HFF cells; format: cell-based; settings: test compounds in DMSO
HSV-2 (MS Strain) = test: Cutaneous HSV-2 infection in rats, topical ointment; format: in vivo, rat; settings: topical 2% ointment twice daily for 3 days
[1] = system: Human laryngeal epithelial carcinoma cells (HEp-2); test: Cytotoxicity in HEp-2 cells; format: cell-based
Mouse Cytomegalovirus = test: CPE inhibition in stationary cells (visual), MCMV in MEF cells; format: cell-based; settings: test compounds in DMSO
Epstein-Barr Virus = test: VCA expression in EBV-infected Daudi cells; settings: Epstein-Barr Virus, Daudi cells, VCA; test compounds in DMSO
Text: Raji is a Burkitt's lymphoma cell line containing 60 EBV genome/cell, and was the primary cell used for screening antiviral activity against EBV early antigen (EA) expression. […] It spontaneously expresses EBV EA in 0.25-0.5% of the cells. It was used in follow-up studies to confirm activity. These cell lines respond to superinfection by EBV by expressing EA-diffuse component EA (D), EA restricted component EA (R), and viral capsid antigen (VCA). […] The cultures were fed twice weekly and the cell concentration was adjusted to 3×10^5/ml. The cells were kept at 37° C. in humidified atmosphere with 5% CO2.
Cells were infected with the P3HR-1 strain of HBV and the test compound was added after adsorption (45 minutes at 37° C.) and washing of the cell cultures. The cultures were incubated for two days in complete medium to allow viral gene expression. Following the 48 hours of incubation, the numbers of cells of each sample was counted and smears were made. Monoclonal antibodies to the different EA components and VCA were then added to the cells and then incubated and washed. This is followed by a fluorescein conjugated rabbit anti-mouse IgG antibody, and the number of fluorescence cells in the smear were counted. The total number of cells in the cultures positive for EA or VCA were then calculated and compared.

Daudi cells = test: CC50 in Daudi cells (Table 3); format: cell-based; settings: Daudi cells, Epstein-Barr Virus section of Table 3
Experimental: Raji is a Burkitt's lymphoma cell line containing 60 EBV genome/cell, and was the primary cell used for screening antiviral activity against EBV early antigen (EA) expression. Daudi is a low level producer that contains 152 EBV genome copies/cell. It spontaneously expresses EBV EA in 0.25-0.5% of the cells. It was used in follow-up studies to confirm activity. […] All cell lines were maintained in RPMI-1640 medium supplemented with 10% FCS, L-glutamine and 100 μg/ml gentamicin. The cultures were fed twice weekly and the cell concentration was adjusted to 3×10^5/ml. The cells were kept at 37° C. in humidified atmosphere with 5% CO2.

Molecule | CC50 (MEF cells) [µg/mL] | EC50 (Human Cytomegalovirus) [µg/mL] | EC50 (Varicella-Zoster Virus) [µg/mL] | effect on cutaneous HSV-2 infection (in words) (HSV-2 (MS Strain)) | cytotoxicity (in words) ([1]; HEp-2 (human epithelial) cells) | Cell Cytotoxicity ([1]; HEp-2 cells, conc. per compound (ng/ml)) | EC50 (Mouse Cytomegalovirus) [µg/mL] | EC50 (Epstein-Barr Virus) [µg/mL] | CC50 (Daudi cells) [µg/mL]
C=C(C)[C@@H]1CC[C@]2(CO)CC[C@]3(C)[C@H](CC[C@@H]4[C@@]5(C)CC[C@H](O)C(C)(C)[C@@H]5CC[C@]43C)[C@@H]12 [Betulin, lup-20(29)-ene-3β, 28-diol, reference compound] | 0.08 (≈ 0.181 µM) | 0.0029 (≈ 0.00655 µM) | >0.004 | significant effect | less cytotoxicity | − | >0.02 |  | 
acycloguanosine [Acyclovir, reference compound] |  |  |  |  |  |  |  | 1.4 | >100
